For orientation: IC50 means the concentration that inhibits the measured activity by half. The term melting point denotes the temperature of the solid-liquid transition.

This passage reports IC50 and melting point results from US20070197585A1, “Use of cysteinyl leukotriene 2 receptor antagonists” (priority 2004, published 2007).

The target in one data set is T1, CysLT1 receptor (Homo sapiens, UniProt Q9Y271).
T1 construct: expressed in transfected cells; host or cells: HEK293T
T1 sequence (Q9Y271 1-337): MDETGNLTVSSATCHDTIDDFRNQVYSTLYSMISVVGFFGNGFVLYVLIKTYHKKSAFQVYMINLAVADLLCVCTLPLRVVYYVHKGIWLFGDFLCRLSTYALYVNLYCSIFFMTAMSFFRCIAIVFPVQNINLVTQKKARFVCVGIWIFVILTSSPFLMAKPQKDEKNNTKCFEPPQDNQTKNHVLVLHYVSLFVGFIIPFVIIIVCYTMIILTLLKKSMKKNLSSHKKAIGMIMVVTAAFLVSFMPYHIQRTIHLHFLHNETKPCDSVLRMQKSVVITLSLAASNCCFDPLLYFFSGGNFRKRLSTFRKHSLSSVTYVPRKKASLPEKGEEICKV
The data set is described as follows: LTD4-induced calcium flux (calcium mobilization, FLIPR) in CysLT1 receptor transfected HEK293T cells. The class given is cell-based. Conditions: antagonist dose-response curve, read-out: IC50 of blocking LTD4-induced calcium flux, CysLT1 receptor. As to the method:
(§1) Compounds may be screened for effects on LTD4 induced calcium mobilization in cells transfected with CysLT2 receptor, according to the following calcium mobilization assay.
(§2) Human embryonic kidney (HEK293T) cells transiently transfected with the CysLT2 receptor using LipofectAMINE™2000 reagent (Life Technologies) or Chinese hamster ovary (CHO-NFAT) cells stably transfected with the CysLT2 type receptor are plated into Poly-D-Lysine treated black-wall microplates (Biocoat™) at 5×10^4 cells per well. Cells are maintained for approximately 24 hours at 37° C. and 5% CO2. After 24 hours, cells are loaded with Fluo4 calcium indicator dye (Molecular Probes) in the presence of 2.5 mM probenecid for one hour. After washing, the cells are treated with agonist, (10 nM LTD4, BioMol), and maximum fluorescence measured in a Molecular Devices Fluorometric Imaging Plate Reader (FLIPR). Compounds screened for antagonism are added five minutes prior to addition of agonist.
Compounds of interest from the CysLT2 receptor screen may also be assayed in a CysLT1 receptor counter screen. Compounds of interest may be assayed using the same protocol described above in cells transfected with the CysLT1 receptor.
(§3) Agonist and Standard Antagonist Functional Characterization on Human CysLT1 and CysLT2 Receptors
Background: Calcium flux is commonly read through the fluorescence of an indicator in the cells.

The target in another data set is T2, CysLT2 receptor (Homo sapiens, UniProt Q9NS75).
T2 construct: expressed in transfected cells
T2 sequence (Q9NS75 1-346): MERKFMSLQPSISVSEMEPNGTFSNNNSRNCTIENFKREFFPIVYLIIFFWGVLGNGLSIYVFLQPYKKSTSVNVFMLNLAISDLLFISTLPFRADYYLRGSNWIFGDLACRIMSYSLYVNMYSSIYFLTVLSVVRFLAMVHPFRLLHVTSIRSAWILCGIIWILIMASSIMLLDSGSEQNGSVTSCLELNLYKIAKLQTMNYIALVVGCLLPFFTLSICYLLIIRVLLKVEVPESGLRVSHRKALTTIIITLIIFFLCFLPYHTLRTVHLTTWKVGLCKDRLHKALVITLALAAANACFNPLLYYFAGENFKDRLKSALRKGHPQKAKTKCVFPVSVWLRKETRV
Kind of data set: LTD4-induced calcium flux (calcium mobilization, FLIPR) in CysLT2 receptor-transfected cells. The class given is cell-based. Conditions: antagonist dose-response curve, read-out: IC50 of blocking LTD4-induced calcium flux, CysLT2 receptor. As to the method: as §1, §2, §3

On to `CCCCCCCCCc1ccc(C(Sc2cccc(NC(=O)CC(=O)O)c2)C(=O)CCCC(=O)O)cc1` (stereo not drawn) [Compound (I), 6-({3-[(carboxyacetyl)amino]phenyl}thio)-6-(4-nonylphenyl)-5-oxohexanoic acid], for which the melting point is 88 to 91 °C. In addition, the IC50 on CysLT1 receptor was less than 10 µM. The IC50 at CysLT2 receptor was less than 10 µM.
